Patent publication US20250034110A1, “LPAR1 ANTAGONISTS AND USES THEREOF” (Pipeline Therapeutics, Inc., priority 2021, published 2025)
Where two headings read alike, the source gives them in different places.

Molecular target: human LPAR1 (Homo sapiens, UniProt Q92633)
Assay: In vitro functional assay of lysophosphatidic acid receptor 1 activity (calcium flux)
Type: cell-based
[1] = B103 cells stably expressing human LPAR1, calcium flux (Fluo-4 NW) after lysophosphatidic acid (18:1) at EC80, 100 pM to 10 μM, read-out: LPAR1 IC50

Sequence of human LPAR1 (Q92633 whole entry): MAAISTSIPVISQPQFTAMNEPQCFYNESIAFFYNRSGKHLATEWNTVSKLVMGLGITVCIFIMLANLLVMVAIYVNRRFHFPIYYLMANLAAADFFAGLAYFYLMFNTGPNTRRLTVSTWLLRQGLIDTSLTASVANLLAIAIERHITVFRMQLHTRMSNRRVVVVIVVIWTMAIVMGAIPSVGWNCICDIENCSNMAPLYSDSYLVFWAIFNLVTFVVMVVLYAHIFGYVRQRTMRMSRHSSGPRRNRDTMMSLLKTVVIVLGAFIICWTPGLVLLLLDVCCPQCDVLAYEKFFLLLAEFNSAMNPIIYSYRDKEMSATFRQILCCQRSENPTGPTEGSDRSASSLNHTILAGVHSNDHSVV

SMILES	IC50 (LPAR1 IC50) [nM]	IC50 [1] [nM]
CC(=O)N1CCC(N(C(=O)Nc2ccc(C)nc2OC(F)F)c2cccnc2C(C)C)CC1 [Example 31, 1-(1-acetylpiperidin-4-yl)-3-(2-(difluoromethoxy)-6-methylpyridin-3-yl)-1-(2-isopropylpyridin-3-yl)urea]	100 to 1000	–
CC(=O)N1CCC(N(C(=O)Nc2ccc(C)nc2OC(F)F)c2cccc(C(C)C)c2)CC1 [Example 32, 1-(1-acetylpiperidin-4-yl)-3-(2-(difluoromethoxy)-6-methylpyridin-3-yl)-1-(3-isopropylphenyl)urea]	100 to 1000	–
CC(=O)N1CCC(N(C(=O)Nc2ccc(C)nc2OC(F)F)c2cccc(C)c2)CC1 [Example 33, 1-(1-acetylpiperidin-4-yl)-3-(2-(difluoromethoxy)-6-methylpyridin-3-yl)-1-(m-tolyl)urea]	> 1000	–
CC(=O)N1CCC(N(C(=O)Nc2ccc(C)nc2OC(F)F)c2ccccc2C(F)F)CC1 [Example 34, 1-(1-acetylpiperidin-4-yl)-3-(2-(difluoromethoxy)-6-methylpyridin-3-yl)-1-(2-(difluoromethyl)phenyl)urea]	> 1000	–
COC(C)c1ccccc1N(C(=O)Nc1ccc(C)nc1OC(F)F)C1CCN(C(C)=O)CC1 (stereo not drawn) [Example 35, 1-(1-acetylpiperidin-4-yl)-3-(2-(difluoromethoxy)-6-methylpyridin-3-yl)-1-(2-(1-methoxyethyl)phenyl)urea]	100 to 1000	–
CC(=O)N1CCC(N(C(=O)Nc2ccc(C)nc2OC(F)F)c2cnccc2C(C)C)CC1 [Example 36, 1-(1-acetylpiperidin-4-yl)-3-(2-(difluoromethoxy)-6-methylpyridin-3-yl)-1-(4-isopropylpyridin-3-yl)urea]	100 to 1000	–
COc1ccc(NC(=O)N(c2ccccc2C(C)C)[C@@H]2CCN(C3COC3)C2)c(OC(F)F)n1 [Example 37, (R)-3-(2-(difluoromethoxy)-6-methoxypyridin-3-yl)-1-(2-isopropylphenyl)-1-(1-(oxetan-3-yl)pyrrolidin-3-yl)urea]	–	100 to 1000
COc1ccc(NC(=O)N(c2ccccc2C(C)C)[C@H]2CCN(C3COC3)C2)c(OC(F)F)n1 [Example 38, (S)-3-(2-(difluoromethoxy)-6-methoxypyridin-3-yl)-1-(2-isopropylphenyl)-1-(1-(oxetan-3-yl)pyrrolidin-3-yl)urea]	–	100 to 1000
COc1ccc(NC(=O)N(c2ccccc2C(C)C)[C@H]2CC[C@@H](OC)CC2)c(OC(F)F)n1 [Example 39, 3-(2-(difluoromethoxy)-6-methoxypyridin-3-yl)-1-(2-isopropylphenyl)-1-((1s,4s)-4-methoxycyclohexyl)urea]	–	100 to 1000
COc1ccc(NC(=O)N(c2ccccc2C(C)C)[C@H]2CC[C@H](OC)CC2)c(OC(F)F)n1 [Example 40, 3-(2-(difluoromethoxy)-6-methoxypyridin-3-yl)-1-(2-isopropylphenyl)-1-((1r,4r)-4-methoxycyclohexyl)urea]	–	10 to 100
COc1ccc(NC(=O)N(c2ccccc2C(C)C)C2CN(C(C)=O)C2)c(OC(F)F)n1 [Example 41, 1-(1-acetylazetidin-3-yl)-3-(2-(difluoromethoxy)-6-methoxypyridin-3-yl)-1-(2-isopropylphenyl)urea]	–	100 to 1000
COc1ccc(NC(=O)N(c2cccc(C)c2C)C2CCN(C(C)=O)CC2)c(OC(F)F)n1 [Example 42, 1-(1-acetylpiperidin-4-yl)-3-(2-(difluoromethoxy)-6-methoxypyridin-3-yl)-1-(2,3-dimethylphenyl)urea]	100 to 1000	–
COc1ccc(NC(=O)N(c2ccccc2C(C)C)C2CCCN(C(C)=O)C2)c(OC(F)F)n1 (stereo not drawn) [Example 43, 1-(1-acetylpiperidin-3-yl)-3-(2-(difluoromethoxy)-6-methoxypyridin-3-yl)-1-(2-isopropylphenyl)urea]	–	100 to 1000
COc1ccc(NC(=O)N(c2ccccc2C(C)C)C2CCN(C)C(=O)C2)c(OC(F)F)n1 (stereo not drawn) [Example 44, 3-(2-(difluoromethoxy)-6-methoxypyridin-3-yl)-1-(2-isopropylphenyl)-1-(1-methyl-2-oxopiperidin-4-yl)urea]	–	10 to 100
COc1ccc(NC(=O)N(c2ccccc2C(C)C)C2CCCN(C)C2=O)c(OC(F)F)n1 (stereo not drawn) [Example 45, 3-(2-(difluoromethoxy)-6-methoxypyridin-3-yl)-1-(2-isopropylphenyl)-1-(1-methyl-2-oxopiperidin-3-yl)urea]	–	100 to 1000
COc1ccc(NC(=O)N(c2ccccc2C(C)C)[C@H]2CCN(C(C)=O)C[C@H]2F)c(OC(F)F)n1 [Example 48, 1-((3R,4S)-1-acetyl-3-fluoropiperidin-4-yl)-3-(2-(difluoromethoxy)-6-methoxypyridin-3-yl)-1-(2-isopropylphenyl)urea]	10 to 100	–
COc1ccc(NC(=O)N(c2ccccc2C(C)C)[C@@H]2CCN(C(C)=O)C[C@@H]2F)c(OC(F)F)n1 [Example 49, 1-((3S,4R)-1-acetyl-3-fluoropiperidin-4-yl)-3-(2-(difluoromethoxy)-6-methoxypyridin-3-yl)-1-(2-isopropylphenyl)urea]	10 to 100	–

SMILES	IC50 (LPAR1 IC50) [nM]	IC50 [1] [nM]
COc1ccc(NC(=O)N(c2ccccc2C(C)C)C2C3CC2CN(C(C)=O)C3)c(OC(F)F)n1 (stereo not drawn) [Example 53, 1-(3-acetyl-3-azabicyclo[3.1.1]heptan-6-yl)-3-(2-(difluoromethoxy)-6-methoxypyridin-3-yl)-1-(2-isopropylphenyl)urea]	100 to 1000	–
COc1ccc(NC(=O)N(c2ccccc2C(C)C)[C@@H]2C[C@H]3CC[C@@H](C2)N3C(C)=O)c(OC(F)F)n1 [Example 54, 1-((1R,3s,5S)-8-acetyl-8-azabicyclo[3.2.1]octan-3-yl)-3-(2-(difluoromethoxy)-6-methoxypyridin-3-yl)-1-(2-isopropylphenyl)urea]	10 to 100	–
COc1ccc(NC(=O)N(c2ccccc2C(C)C)[C@@H]2C[C@H]3CC[C@@H](C2)N3C(C)=O)c(OC(F)F)n1 [Example 55, 1-((1R,3r,5S)-8-acetyl-8-azabicyclo[3.2.1]octan-3-yl)-3-(2-(difluoromethoxy)-6-methoxypyridin-3-yl)-1-(2-isopropylphenyl)urea]	100 to 1000	–
COc1ccc(NC(=O)N(c2ccccc2C(C)C)[C@@H]2[C@@H]3CC[C@H]2CN(C(C)=O)C3)c(OC(F)F)n1 [Example 56, 1-((1R,5S,8s)-3-acetyl-3-azabicyclo[3.2.1]octan-8-yl)-3-(2-(difluoromethoxy)-6-methoxypyridin-3-yl)-1-(2-isopropylphenyl)urea]	100 to 1000	–
COc1ccc(NC(=O)N(c2ccccc2C(C)C)C2CC3CC2CN3C(C)=O)c(OC(F)F)n1 (stereo not drawn) [Example 57, 1-(2-acetyl-2-azabicyclo[2.2.1]heptan-5-yl)-3-(2-(difluoromethoxy)-6-methoxypyridin-3-yl)-1-(2-isopropylphenyl)urea]	100 to 1000	–
COc1ccc(NC(=O)N(c2ccccc2C(C)C)[C@@H]2C[C@H]3C[C@@H]2CN3C(C)=O)c(OC(F)F)n1 [Example 58, 1-((1R,4R,5R)-2-acetyl-2-azabicyclo[2.2.1]heptan-5-yl)-3-(2-(difluoromethoxy)-6-methoxypyridin-3-yl)-1-(2-isopropylphenyl)urea]	> 1000	–
COc1ccc(NC(=O)N(c2ccccc2C(C)C)C23CCN(C(C)=O)CC2C3)c(OC(F)F)n1 (stereo not drawn) [Example 61, 1-(3-acetyl-3-azabicyclo[4.1.0]heptan-6-yl)-3-(2-(difluoromethoxy)-6-methoxypyridin-3-yl)-1-(2-isopropylphenyl)urea]	10 to 100	–
COC(=O)N1CCC(N(C(=O)Nc2ccc(OC)nc2OC(F)F)c2ccccc2C(C)C)CC1 [Example 63, methyl 4-(3-(2-(difluoromethoxy)-6-methoxypyridin-3-yl)-1-(2-isopropylphenyl)ureido)piperidine-1-carboxylate]	10 to 100	–
CNC(=O)N1CCC(N(C(=O)Nc2ccc(OC)nc2OC(F)F)c2ccccc2C(C)C)CC1 [Example 64, 4-(3-(2-(difluoromethoxy)-6-methoxypyridin-3-yl)-1-(2-isopropylphenyl)ureido)-N-methylpiperidine-1-carboxamide]	10 to 100	–
COc1ccc(NC(=O)N(c2ccccc2C(C)C)C2CCN(C(N)=O)CC2)c(OC(F)F)n1 [Example 65, 4-(3-(2-(difluoromethoxy)-6-methoxypyridin-3-yl)-1-(2-isopropylphenyl)ureido)piperidine-1-carboxamide]	10 to 100	–
CC(=O)N1CCC(N(C(=O)Nc2ccc(C)nc2OC(F)F)c2ccccc2C(C)C)CC1 [Example 66, 1-(1-acetylpiperidin-4-yl)-3-(2-(difluoromethoxy)-6-methylpyridin-3-yl)-1-(2-isopropylphenyl)urea]	< 10	–
CC(=O)N1CC(N(C(=O)Nc2ccc(C)nc2OC(F)F)c2ccccc2C(C)C)C1 [Example 67, 1-(1-acetylazetidin-3-yl)-3-(2-(difluoromethoxy)-6-methylpyridin-3-yl)-1-(2-isopropylphenyl)urea]	–	10 to 100
CC(=O)N1CC[C@H](N(C(=O)Nc2ccc(C)nc2OC(F)F)c2ccccc2C(C)C)C1 [Example 68, (S)-1-(1-acetylpyrrolidin-3-yl)-3-(2-(difluoromethoxy)-6-methylpyridin-3-yl)-1-(2-isopropylphenyl)urea]	–	10 to 100
CC(=O)N1C[C@@H]2[C@H](C1)[C@H]2N(C(=O)Nc1ccc(C)nc1OC(F)F)c1ccccc1C(C)C [Example 69, 1-((1R,5S,6s)-3-acetyl-3-azabicyclo[3.1.0]hexan-6-yl)-3-(2-(difluoromethoxy)-6-methylpyridin-3-yl)-1-(2-isopropylphenyl)urea]	100 to 1000	–
CC(=O)N1CC2(CC(N(C(=O)Nc3ccc(C)nc3OC(F)F)c3ccccc3C(C)C)C2)C1 [Example 70, 1-(2-acetyl-2-azaspiro[3.3]heptan-6-yl)-3-(2-(difluoromethoxy)-6-methylpyridin-3-yl)-1-(2-isopropylphenyl)urea]	–	100 to 1000
CC(=O)N1CC[C@@H]1CN(C(=O)Nc1ccc(C)nc1OC(F)F)c1ccccc1C(C)C [Example 71, (R)-1-((1-acetylazetidin-2-yl)methyl)-3-(2-(difluoromethoxy)-6-methylpyridin-3-yl)-1-(2-isopropylphenyl)urea]	–	> 1000
